Laboratory results taken from the SangsterLogP compilation.

Test: method code SF-W, from PMID: 8453740

For `CNc1cnn(-c2cccc(C(F)(F)F)c2)c(=O)c1Cl`, which logP is on record?
The logP was 2.52.

Test: method code SF, from PMID: 8453740

For `CCCCCOc1cccc(-c2cn(C)cc(-c3ccccc3)c2=O)c1`, which logP is on record?
The logP was 4.07.

For `CCCCCN(C)C(=O)c1cccc(Oc2ccccc2)c1`, which logP is on record?
Its logP is 4.43.

For `Cc1ccc(C)c(Oc2cccc(C(=O)NC(C)C)c2)c1`, which logP is on record?
Its logP is 4.35.

For `CN(C)C(=O)c1cccc(Oc2ccccc2)c1`, which logP is on record?
Its logP is 2.57.

For `CCCN(C)C(=O)c1cccc(Oc2ccccc2)c1`, which logP is on record?
Its logP is 3.44.

For `CNC(=O)c1cccc(Oc2cc(C)ccc2C)c1`, which logP is on record?
Its logP is 3.76.

For `CNC1=C(c2cccc(C(F)(F)F)c2)C(=O)C(c2ccccc2)O1` (stereo not drawn), which logP is on record?
Its logP is 3.22.

Which logP does the source give for `CCCOc1cccc(-c2cn(C)cc(-c3ccccc3)c2=O)c1` here?
The logP was 2.98.

Which logP does the source give for `CCCCN(C)C(=O)c1cccc(Oc2ccccc2)c1` here?
The logP was 3.89.

With `COc1cccc(-c2cn(C)cc(-c3ccccc3)c2=O)c1` as the compound, how does the logP read?
The logP was 1.94.

For `CCN(C)C(=O)c1cccc(Oc2ccccc2)c1`, which logP is on record?
Its logP is 2.98.

For `CN(C)C=C1OC(=O)C(C#N)=C1c1ccccc1`, which logP is on record?
Its logP is 1.07.

With `Cc1ccc(C)c(Oc2cccc(C(=O)NC(C)(C)C)c2)c1` as the compound, how does the logP read?
The logP was 4.78.

For `CCCCCCOc1cccc(-c2cn(C)cc(-c3ccccc3)c2=O)c1`, which logP is on record?
The logP was 4.59.

For `CNC(=O)c1cccc(Oc2ccccc2)c1`, which logP is on record?
Its logP is 2.86.

Test: not given

For `CCCCCCOc1cccc(-c2cn(C)cc(-c3ccc(Cl)cc3)c2=O)c1`, which logP is on record?
The logP was 5.23.

For `CCCCCCN(C)C(=O)c1cccc(Oc2ccccc2)c1`, which logP is on record?
The logP was 5.01.
